In US7504517B2, “Kv1.5 potassium channel inhibitors” (Wyeth, priority 2006, dated 2009):

Tests used:
[1] = molecular target: T1, Kv1.5 (Homo sapiens, UniProt P22460); assay: Kv1.5 Patch Clamp EP; assay type: cell-based; conditions: whole cell patch clamp; for inhibition at 1 µM: single point, Kv1.5 stably over expressed in HEK or LTK- cells; for IC50: HEK or LTK- cells, at least four concentrations, n=3
T1 construct: expressed in transfected cells; host or cells: HEK or LTK- cells
Description: The external solution is standard Tyrodes solution. […] Inhibition was measured at the end of the 1 second pulses and expressed relative to controls. Initial Kv1.5 inhibition is estimated by single point determinations done at 1 μM.

[2] = tested on: L-type calcium channels; assay: FLIPR L-Type Calcium Channel Assay; assay type: cell-based, murine; conditions: HL-1 cells expressing endogenous L-type calcium channels; calcium influx after 20 mM KCl; read-out: L-type Ca^2+ IC50
In short: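 After a 15 min compound pre-incubation at 37 °C with 2.5 mM probenecid, L-type channels were opened by depolarising with 20 mM KCl (final). Fluorescence (488 nm excitation, 510–570 nm emission) was read for 5 min.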

[3] = molecular target: HERG (Homo sapiens, UniProt Q12809); assay: HERG Patch Clamp EP; conditions: for inhibition at 10 µM: human, HEK cells stably overexpressing HERG
Chain of HERG (Q12809 whole entry): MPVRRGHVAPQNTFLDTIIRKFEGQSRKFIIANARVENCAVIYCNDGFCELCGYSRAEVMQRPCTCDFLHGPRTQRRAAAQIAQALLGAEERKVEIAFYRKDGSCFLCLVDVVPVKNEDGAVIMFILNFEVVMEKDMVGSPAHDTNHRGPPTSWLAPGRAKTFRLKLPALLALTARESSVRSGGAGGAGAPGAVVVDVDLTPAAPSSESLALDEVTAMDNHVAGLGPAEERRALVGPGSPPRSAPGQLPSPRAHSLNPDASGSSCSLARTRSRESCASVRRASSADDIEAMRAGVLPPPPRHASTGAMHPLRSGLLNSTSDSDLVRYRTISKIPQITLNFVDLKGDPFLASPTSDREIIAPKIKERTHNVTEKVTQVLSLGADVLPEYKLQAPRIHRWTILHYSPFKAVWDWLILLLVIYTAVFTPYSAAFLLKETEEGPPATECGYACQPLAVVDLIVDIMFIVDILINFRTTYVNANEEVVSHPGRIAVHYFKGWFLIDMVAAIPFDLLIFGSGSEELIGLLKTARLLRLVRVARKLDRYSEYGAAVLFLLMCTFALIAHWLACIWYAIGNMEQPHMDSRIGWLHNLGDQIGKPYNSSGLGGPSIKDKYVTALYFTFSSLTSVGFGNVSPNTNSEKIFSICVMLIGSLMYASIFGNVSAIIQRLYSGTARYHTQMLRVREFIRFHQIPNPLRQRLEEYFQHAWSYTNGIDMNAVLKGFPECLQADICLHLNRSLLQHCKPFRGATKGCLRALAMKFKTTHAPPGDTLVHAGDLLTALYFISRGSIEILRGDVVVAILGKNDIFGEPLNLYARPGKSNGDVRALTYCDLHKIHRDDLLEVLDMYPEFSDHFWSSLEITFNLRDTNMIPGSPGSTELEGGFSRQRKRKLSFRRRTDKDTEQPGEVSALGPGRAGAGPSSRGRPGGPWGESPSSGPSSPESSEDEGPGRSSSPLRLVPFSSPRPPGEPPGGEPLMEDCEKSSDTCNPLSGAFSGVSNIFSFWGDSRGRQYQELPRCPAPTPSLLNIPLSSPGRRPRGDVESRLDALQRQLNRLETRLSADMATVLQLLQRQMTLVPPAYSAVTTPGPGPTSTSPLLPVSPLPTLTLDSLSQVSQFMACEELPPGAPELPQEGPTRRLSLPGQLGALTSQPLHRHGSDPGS
Description: HERG currents are recorded by the whole cell mode of patch clamp electrophysiology as described by Hamill et al.^3 HERG is stably over expressed in HEK cells. Microelectrodes are pulled from borosilicate glass (TW150) and heat polished (tip resistance, 1.5 to 3 megaohms). The external solution is standard Tyrodes solution. The internal (microelectrode) solution contained: 110 mM KCl, 5 mM K2ATP, 5 mM K4BAPTA, 1 mM MgCl2 and 10 mM HEPES, adjusted to pH 7.2 with KOH. […] Compounds are prepared as 10-20 mM DMSO stocks and diluted to appropriate test concentrations. […] Inhibition of HERG is measured at the peak of the tail currents and expressed relative to controls. Initial HERG activity is estimated by single point determinations run at 10 μM. Concentration response curves are generated for appropriate compounds utilizing at least four concentrations and an n=3. Curve fitting and IC50 estimating are done using Graphpad software (Ver. 4). • 1.

T1 sequence (P22460 whole entry): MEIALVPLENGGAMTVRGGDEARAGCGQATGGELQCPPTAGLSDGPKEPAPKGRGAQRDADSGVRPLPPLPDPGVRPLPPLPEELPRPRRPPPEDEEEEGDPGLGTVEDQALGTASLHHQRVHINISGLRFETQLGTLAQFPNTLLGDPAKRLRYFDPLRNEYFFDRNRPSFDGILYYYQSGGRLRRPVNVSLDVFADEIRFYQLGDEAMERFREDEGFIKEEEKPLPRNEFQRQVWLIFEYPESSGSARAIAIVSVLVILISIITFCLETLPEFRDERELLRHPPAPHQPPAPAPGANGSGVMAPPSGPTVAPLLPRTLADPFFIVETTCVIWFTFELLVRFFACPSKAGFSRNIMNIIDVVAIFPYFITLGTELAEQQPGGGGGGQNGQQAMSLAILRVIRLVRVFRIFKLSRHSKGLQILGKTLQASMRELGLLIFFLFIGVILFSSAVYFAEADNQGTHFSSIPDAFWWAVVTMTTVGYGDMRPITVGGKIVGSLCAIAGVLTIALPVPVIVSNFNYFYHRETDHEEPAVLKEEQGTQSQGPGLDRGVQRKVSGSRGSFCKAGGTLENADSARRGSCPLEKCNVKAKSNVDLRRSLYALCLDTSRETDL

Structure (SMILES)	inhibition at 1 µM [1]	IC50 [2]	inhibition at 10 µM [3]	IC50 [1]	IC50 [3]
COc1ccc(CCN2C(=O)N(NS(=O)(=O)CS(C)(=O)=O)CC2c2ccc(C3CC3)cc2)cc1 (stereo not drawn) [Compound 61, 1-[(Methylsulfonylmethyl)sulfonyl]amino-3-[2-(4-methoxyphenyl)ethyl]-4-(4-Cyclopropylphenyl)-2-imidazolidinone]	85%	25 µM	28%	–	–
COc1ccc(CCN2C(=O)N(NS(=O)(=O)Cc3ccccc3)CC2c2ccc(C)c(C)c2)cc1 (stereo not drawn) [Compound 43, 1-[(Phenylmethyl)sulfonylamino]-3-[2-(4-methoxyphenyl)ethyl]-4-(3,4-dimethyl-phenyl)-2-imidazolidinone]	93%	4.3 µM	2%	–	–
COc1ccc(CCN2C(=O)N(NS(C)(=O)=O)C[C@@H]2c2ccc(OC)cc2)cc1 [Compound 107, N-{(4S)-4-(4-methoxyphenyl)-3-[2-(4-methoxyphenyl)ethyl]-2-oxoimidazolidin-1-yl}methanesulfonamide]	41%	39 µM	–	1.1 µM	54 µM
COc1ccc(CCN2C(=O)N(NS(=O)(=O)CF)CC2c2ccc(OC)cc2)cc1 (stereo not drawn) [Compound 35, 1-(Fluoromethylsulfonylamino)-3-[2-(4-methoxyphenyl)ethyl]-4-(4-methoxy-phenyl)-2-imidazolidinone]	71%	30 µM	14%	–	–
COc1ccc(CCN2C(=O)N(NS(=O)(=O)Cc3cccnc3)CC2c2ccc(C)cc2)cc1 (stereo not drawn) [Compound 65, 1-[(Pyridin-3-yl)methylsulfonyl]amino-3-[(4-methoxyphenyl)ethyl]-4-(4-methylphenyl)-2-imidazolidinone]	88%	31 µM	38%	–	–
COc1ccc(CCN2C(=O)N(NS(=O)(=O)CC(=O)NCC3CC3)CC2c2ccc(OC)cc2)cc1 (stereo not drawn) [Compound 57, 1-[[2-[(Cyclopropylmethyl)amino]-2-oxoethyl]sulfonylamino]-3-[2-(4-methoxy-phenyl)ethyl]-4-(4-methoxyphenyl)-2-imidazolidinone]	66%	30 µM	12%	0.631 µM	12.4 µM
COc1ccc(CCN2C(=O)N(NS(C)(=O)=O)CC2c2ccc3c(c2)OC(C)(C)O3)cc1 (stereo not drawn) [Compound 18, 1-(Methylsulfonylamino)-3-[2-(4-methoxyphenyl)ethyl]-4-(2,2-dimethylbenzo-[1,3]dioxol-5-yl)-2-imidazolidinone]	59%	24 µM	12%	–	–
COc1ccc(CCN2C(=O)N(NS(C)(=O)=O)C[C@@H]2c2ccc(C(C)(C)C)cc2)cc1 [Compound 173, N-{(4S)-4-(4-tert-butylphenyl)-3-[2-(4-methoxyphenyl)ethyl]-2-oxoimidazolidin-1-yl}methanesulfonamide]	94%	14.6 µM	48%	–	–
COc1ccc(CCN2C(=O)N(NS(=O)(=O)CC(=O)N(C)C)CC2c2ccc(C3CC3)cc2)cc1 (stereo not drawn) [Compound 54, 1-[[2-(Dimethylamino)-2-oxoethyl]sulfonylamino]-3-[2-(4-methoxyphenyl)-ethyl]-4-(4-cyclopropylphenyl)-2-imidazolidinone]	80%	30 µM	46%	–	–
COc1ccc(C2CN(NS(=O)(=O)Cc3cccnc3)C(=O)N2CCCc2ccccc2)cc1 (stereo not drawn) [Compound 101, 1-[(Pyridin-3-yl)methylsulfonyl]amino-3-(3-phenylpropyl)-4-(4-methoxyphenyl)-2-imidazolidinone]	81%	19 µM	24%	–	–
CS(=O)(=O)NN1CC(c2ccc(C3CC3)cc2)N(CCCc2ccccc2)C1=O (stereo not drawn) [Compound 45, 1-(Methylsulfonylamino)-3-(3-phenylpropyl)-4-(4-cyclopropylphenyl)-2-imidazolidinone]	83%	16 µM	55%	–	–
COc1ccc(CCN2C(=O)N(N(CCn3ccnc3)C(=O)OC(C)(C)C)CC2c2ccc(C(C)(C)C)cc2)cc1 (stereo not drawn) [Compound 146, tert-butyl {4-(4-tert-butylphenyl)-3-[2-(4-methoxyphenyl)ethyl]-2-oxoimidazolidin-1-yl}[2-(1H-imidazol-1-yl)ethyl]carbamate]	83%	15 µM	86%	–	–
COc1ccc(CCN2C(=O)N(N(CCn3ccnc3)C(=O)C(C)C)CC2c2ccc(C(C)(C)C)cc2)cc1 (stereo not drawn) [Compound 99, 1-N-[2-(Imidazol-1-yl)ethyl]-N-[iso-butyroyl]amino-3-[2-(4-methoxyphenyl)-ethyl]-4-[(4-tert-butyl)phenyl]-2-imidazolidinone]	73%	4.9 µM	90%	–	–
CCCS(=O)(=O)NN1CC(c2ccc(C3CC3)cc2)N(CCc2ccc(OC)cc2)C1=O (stereo not drawn) [Compound 30, 1-(Propylsulfonylamino)-3-[(4-methoxyphenyl)ethyl]-4-(4-cyclopropylphenyl)-2-imidazolidinone]	88%	3.3 µM	62%	–	–
COc1ccc(CCN2C(=O)N(NC(=O)C3CC3)CC2c2ccc(C(C)(C)C)cc2)cc1 (stereo not drawn) [Compound 73, 1-Cyclopropanecarbonylamino-4-[4-(tert-butyl)phenyl]-3-[2-(4-methoxy-phenyl)ethyl]-2-imidazolidinone]	62%	7 µM	56%	0.658 µM	–
COc1ccc(CCN2C(=O)N(NS(C)(=O)=O)CC2c2ccc(OC(F)F)cc2)cc1 (stereo not drawn) [Compound 26, 1-[(Methylsulfonyl)amino]-3-[2-(4-methoxyphenyl)ethyl]-4-(4-difluoro-methoxyphenyl)-2-imidazolidinone]	66%	17.5 µM	76%	0.716 µM	4.1 µM
COCCN(CCOC)C(=O)CS(=O)(=O)NN1CC(c2ccc(C3CC3)cc2)N(CCc2ccc(OC)cc2)C1=O (stereo not drawn) [Compound 60, 1-[[2-[(Bis(methoxyethyl)amino)]-2-oxoethyl]sulfonylamino]-3-[2-(4-methoxy-phenyl)ethyl]-4-(4-cyclopropylphenyl)-2-imidazolidinone]	77%	10.6 µM	44%	0.453 µM	7.4 µM
COc1ccc(CCN2C(=O)N(NS(=O)(=O)CF)CC2c2ccc(C(C)(C)C)cc2)cc1 (stereo not drawn) [Compound 36, 1-(Fluoromethylsulfonylamino)-3-[2-(4-methoxyphenyl)ethyl]-4-(4-tert-butyl-phenyl)-2-imidazolidinone]	85%	14 µM	50%	–	–
COc1ccc(CCN2C(=O)N(NC(=O)CS(=O)(=O)N(C)C)CC2c2ccc(C3CC3)cc2)cc1 (stereo not drawn) [Compound 82, N-(4-(4-cyclopropylphenyl)-3-(4-methoxyphenethyl)-2-oxoimidazolidin-1-yl)-2-(N,N-dimethylsulfamoyl)acetamide]	72%	30 µM	42%	–	–
COc1ccc(CCN2C(=O)N(NS(=O)(=O)Cc3cccnc3)CC2c2ccc(OC(F)F)cc2)cc1 (stereo not drawn) [Compound 42, 1-[(N-3-Pyridinylmethylsulfonyl)amino]-3-[2-(4-methoxyphenyl)ethyl]-4-(4-difluoromethoxyphenyl)-2-imidazolidinone]	91%	20 µM	90%	0.418 µM	–
COc1ccc(CCN2C(=O)N(NS(C)(=O)=O)CC2c2ccc3c(c2)OCCO3)cc1 (stereo not drawn) [Compound 17, 1-(Methylsulfonylamino)-3-[2-(4-methoxyphenyl)ethyl]-4-[(2,3-dihydro-benzo[1,4]dioxin-6-yl)]-2-imidazolidinone]	89%	40 µM	22%	–	–
COc1ccc(CCN2C(=O)N(NC(=O)c3ccno3)CC2c2ccc(C(C)(C)C)cc2)cc1 (stereo not drawn) [Compound 79, 1-(Isoxazol-5-ylcarbonylamino)-3-[2-(4-methoxyphenyl)-ethyl]-4-[4-(tert-butyl)phenyl]-2-imidazolidinone]	68%	11 µM	70%	–	–
COc1ccc(CCN2C(=O)N(NS(C)(=O)=O)C[C@H]2c2ccc(OC)cc2)cc1 [Compound 106, 1-(Methylsulfonylamino)-3-[2-(4-methoxyphenyl)ethyl]-4-(R)-(4-methoxyphenyl)-2-imidazolidinone]	74%	30 µM	17%	0.474 µM	35 µM
COc1ccc(CCN2C(=O)N(NCc3ccccc3)CC2c2ccc(C)c(C)c2)cc1 (stereo not drawn) [Compound 88, 1-Benzylamino-4-(3,4-dimethylphenyl)-3-[2-(4-methoxyphenyl)ethyl]-2-imidazolidinone]	94%	11 µM	90%	0.399 µM	–
COc1ccc(CCN2C(=O)N(NS(C)(=O)=O)C[C@H]2c2ccc(C(C)(C)C)cc2)cc1 [Compound 172, N-{(4R)-4-(4-tert-butylphenyl)-3-[2-(4-methoxyphenyl)ethyl]-2-oxoimidazolidin-1-yl}methanesulfonamide]	55%	9.8 µM	51%	–	–
COCCN(N1CC(c2ccc(C3CC3)cc2)N(CCc2ccc(OC)cc2)C1=O)S(C)(=O)=O (stereo not drawn) [Compound 68, 1-[(N-Methoxyethyl-N-methylsulfonyl)amino]-3-[2-(4-methoxyphenyl)ethyl]-4-(4-cyclopropylphenyl)-2-imidazolidinone]	60%	16 µM	48%	–	–
